According to patent US11702646B2, “Methods for modulating RNA splicing” (PTC THERAPEUTICS, INC., priority 2016, dated 2023):

System: iExons for certain genes (as specified in the figures)
Assay: Dose dependent production of iExons in the presence of compound or control (DMSO)
Type: cell-based
Conditions: FIGS. 2A-2D, versus control (DMSO)
Method: In some embodiments, a dose-response assay is performed. […] In another embodiment, the dose-response assay comprises: (a) contacting each well of a microtiter plate containing cells with a different concentration of a compound of Formula (I) or a form thereof; (b) determining the amount of an RNA transcript produced by cells in each well; and (c) assessing the change of the amount of the RNA transcript at the different concentrations of the compound or form thereof. […]
In specific embodiments, the amount of alternatively spliced forms of the RNA transcripts of a particular gene are measured to see if there is an alteration in the amount of one, two or more alternatively spliced forms of the RNA transcripts of the gene. In some embodiments, the amount of an isoform(s) encoded by a particular gene is measured to see if there is an alteration in the amount of the isoform(s). In certain embodiments, the levels of spliced forms of RNA are quantified by RT-PCR, RT-qPCR, RNA-Seq, digital color-coded barcode technology, or Northern blot. […] In certain embodiments, splicing is measured in vitro using nuclear extracts. In some embodiments, detection is based on measuring radioactivity or fluorescence. […] In a specific embodiment, modulation of RNA transcripts is assessed as described in the Examples described herein.

For `CCc1nc(C)cn2nc(-c3cc(=O)n4cc(C5CCN(C)CC5)cc(C)c4n3)cc12` [Compound 774], the “dose dependent production of iExons for certain genes” value was “dose dependent production of iExons”.
